Reference: US5989846A, “Assays to identify inducers of plant defense resistance” (Rutgers, The State University of New Jersey, priority 1995, dated 1999)

Columns and labels:
PR1 genes = assay: PR-1 protein/gene expression in tobacco leaves (immunoblot); assay type: in vivo; details: for Induction of PR-1 protein synthesis / PR-1 gene induction (in words): N.t. cv. Xanthi nc
Description: The level of PR1 protein in tobacco leaves was analyzed by immunoblot analysis to establish biological activity. Three leaf discs (1 cm in diameter) were homogenized in 200 microliters of buffer containing 50 mM Tris (pH 8.0), 1 mM EDTA, 12 mM beta-mercaptoethanol and 10 mg/ml phenylmethylsulfonyl fluoride. The homogenate was centrifuged at full speed for 10 minutes in an Eppendorf microcentrifuge. The supernatant was fractionated with 15% polyacrylamide gel under denatured conditions. Protein blotting was done with a monoclonal antibody specific to PR1 protein and protein-antibody complexes were detected with an ECL kit from Amersham.
PR gene expression is both induced by SA and associated with the development of SAR. Therefore, it was of interest to test whether SA's mechanism of action for the induction of PR genes was via its inhibition of catalases which leads to enhanced H2 O2 levels. To address this question, H2 O2 abundance was artificially raised in tobacco leaves by treating with H2 O2 or compounds which either inhibit the catalase activity, like SA itself, or promote generation of H2 O2 in vivo. […]

catalase = assay: In vivo catalase activity in tobacco suspension cells (oxygen electrode); assay type: cell-based
Description: This was determined by adding increasing concentrations of SA or INA to tobacco suspension cells (derived from cultivar Xanthi nc), as described below. The tobacco suspension cell culture was grown in the dark in MS medium at approximately 22° C. with agitation (160 rpm). Cells were maintained by diluting 10-fold every 5 days. For experimentation, 5 ml of suspension cells obtained 3 days after dilution was transferred to a 25 ml Erlenmeyer flask and agitated (100 rpm) at room temperature in the absence or presence of SA or INA which had been adjusted to pH 5.8. After 1 hr, 1 ml of the treated cell suspension was transferred to 7 ml of fresh MS medium containing SA or INA in a 10 ml beaker (density was approximately 6 mg cells per ml). Cells were maintained in suspension with a magnetic stir bar. In vivo catalase activity was determined by measuring, with an oxygen electrode, the rate of H2 O2 -dependent O2 production immediately after addition of H2 O2 to 10 mM final concentration.

ascorbate peroxidase = assay: Ascorbate peroxidase activity in tobacco leaf extracts; assay type: biochemical, Nicotiana tabacum cv. Xanthi nc; details: for % Inhibition of ascorbate peroxidase: 200 μM compound, corrected for quenching of auto oxidation
Description: […] Two grams of leaves from 6-8 week old tobacco plants (Nicotiana tabacum cv. Xanthi nc) grown at 22° C. in a 14 hr light cycle were homogenized under liquid nitrogen using a pestle and mortar.
To obtain ascorbate peroxidase-containing extracts, the soluble proteins were extracted by grinding the powder in 10 ml of 100 mM potassium phosphate, pH 7, containing […] ascorbate and 1% (weight/volume) polyvinylpyrrolidone, with a small amount of quartz sand. The homogenate was centrifuged at 14,000 g for 5 min. […] The pellet resulting from centrifugation (14,000 g, 15 min.) was resuspended in extraction buffer (100 mM potassium phosphate, pH7, containing 0.25 mM ascorbate and 1% (weight/volume) polyvinylpyrrolidone) and desalted on a PD-10 column (Pharmacia) equilibrated with 50 mM potassium phosphate, pH 7, containing 100 μM ascorbate. The extract was used immediately. […] The amount of protein per assay was 30-50 μg. Oxidation of ascorbate was followed by the decrease in the absorbance at 290 nm.
The values illustrated in FIG. 17 are the mean values for three replicated assays.

SABP/catalase = assay: Competition with 14C-labeled SA for SABP/catalase in crude leaf extracts; assay type: binding, tobacco; details: in vitro
TMV = assay type: in vivo, tobacco mosaic virus; details: for Enhanced resistance to TMV infection (reduction in lesion size): N.t. cv. Xanthi nc plants, compared to water-treated control plants
Description: The SA/SAG valves are given in micrograms per gram fresh weight of leaf tissue and represent averages of values from 3-6 treated plants at 6 days past injection. […] For determination of reduction in lesion size, longitudinal halves of 2 leaves on 3-6 plants were injection with chemicals, and six days later the entire leaf was infected with TMV. Twenty lesions were measured on each half of the leaf seven days post infection; the values given represent the average percent reduction in lesion diameter in the treated leaf half compared to the untreated half.

guaiacol peroxidases = assay: Guaiacol peroxidase activity in tobacco leaf extracts; assay type: biochemical, Nicotiana tabacum cv. Xanthi nc
Description: Inhibition of peroxidase by SA and INA was determined by measuring the enzyme activities in extracts prepared from tobacco leaves in the absence or presence of 100 μM or 1000 μM SA or INA. Two grams of leaves from 6-8 week old tobacco plants (Nicotiana tabacum cv. Xanthi nc) grown at 22° C. in a 14 hr light cycle were homogenized under liquid nitrogen using a pestle and mortar.
Total guaiacol peroxidase activity was extracted with 100 mM potassium phosphate, pH 6.2, containing 1% (weight/volume) polyvinylpyrrolidone. In order to also extract the ionically bound cell wall isozymes, the extraction buffer was supplemented with 600 mM KCl. Extraction and centrifugation steps were as described for ascorbate peroxidase. After removal of cell debris and ammonium sulfate precipitation (85%), the extract was desalted against 50 mM potassium phosphate, pH 6, containing 25% glycerol. The extract could be stored at -20° C. without significant loss of peroxidase activity.
(§1) Guaiacol peroxidase activity was determined by the method of Chance and Maehly (Methods Enzymol. 2: 764 (1955)) using guaiacol as the substrate.
(§2) The formation of tetraguaiacol was monitored at 470 nm. The reaction mixture contained 0.25% guaiacol and 100 mM hydrogen peroxide in 20 mM potassium phosphate, pH 6.2. The amount of protein per 1 ml assay was […]. The reaction was measured for five minutes. The assay for horseradish peroxidase was identical, except that only 0.2-0.5 μg protein was used.

horseradish peroxidase = biological target: T1, horseradish peroxidase (Armoracia rusticana, UniProt P00433); assay: Horseradish peroxidase activity; assay type: biochemical
T1 construct: purchased Sigma
T1 sequence (P00433 31-353): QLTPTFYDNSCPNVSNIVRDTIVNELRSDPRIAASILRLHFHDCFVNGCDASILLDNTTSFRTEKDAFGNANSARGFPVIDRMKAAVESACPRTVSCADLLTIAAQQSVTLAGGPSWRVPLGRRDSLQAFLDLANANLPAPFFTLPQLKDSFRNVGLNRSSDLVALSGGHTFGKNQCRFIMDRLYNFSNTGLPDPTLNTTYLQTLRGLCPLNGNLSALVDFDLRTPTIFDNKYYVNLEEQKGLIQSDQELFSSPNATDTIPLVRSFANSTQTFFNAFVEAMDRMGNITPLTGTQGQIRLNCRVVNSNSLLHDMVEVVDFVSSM
Description: Horseradish peroxidase (1 mg; obtained from Sigma) was dissolved in 1.5 ml 200 mM potassium phosphate, pH 6.2, containing 150 mM NaCl. Following a 15 minute incubation at room temperature, the enzyme solution was centrifuged (10,000 g, 10 minutes). After buffer exchange (PD-10, equilibrated with 25 mM potassium phosphate, pH 6.2), the protein concentration was adjusted to 0.5 mg/ml.
as §1, §2

[1] = system: salicylic acid binding protein; assay: Effect of antioxidants on salicylic acid binding activity; parameters: species or system tobacco; details: 20 mM citrate, 5 mM MgCl, 10% glycerol pH 6.5, FIG. 5
Description: This was measured in buffers containing 20 mM citrate, 5 mM MgCl and 10% glycerol pH 6.5 in addition to the indicated concentrations of antioxidant.
A key element during the characterization and the purification process is a simple, inexpensive, sensitive and reliable method for determining the salicylic acid binding activity. For this purpose, spin-column exclusion chromatography was used to separate the bound [^14 C] salicylic acid (excluded) from the bulk free salicylic acid (included). Specifically, a 1.5 ml Eppendorf tube was punctured at the tip with a 20-gauge needle and a small amount of glass wool was added to cover the small hole. The tube was then filled with Bio-Gel P-6DG desalting gel (exclusion limit 6 KDa; purchased from Bio-Rad, Melville, N.Y.) which have been swollen in water. An alternative gel is Sephadex G-25 fine (from Pharmacia, Piscataway, N.J.). Excess liquid in the gel was removed and centrifuged for 5 minutes at full speed in a Dynamic centrifuge (Becton Dickinson). The process was then repeated several times until the gel filled the tube. After incubation of an aliquot of the extract or column fractions for 2 hr at 4° C. with 5 μM-20 μM [^14 C salicylic acid] (specifically radioactivity 55 Ci/mol; purchased from New England Nuclear), 150 μl of proteins binding sample was loaded onto the tube column, which was then rapidly centrifuged for 2 minutes at full speed and the solution of proteins and bound [^14 C-salicylic acid] that was excluded from the gel was collected into another tube that had been placed under the tube column during the centrifugation. One hundred microliters of this solution was then used to determine the amount of bound salicylic acid. […] For example, to determine the inhibitory effect of various salicylic acid analogues on salicylic acid binding activity, these individual analogues were included in the binding mixture containing both the protein and [^14 C] salicylic acid during the 2 hr incubation, and resulting binding activity was determined in comparison to the activity in the absence of these analogues. […]

H2 O2 = assay: Abundance of H2O2 in treated tobacco leaves; assay type: in vivo; details: FIG. 11
Description: The abundance of H2 O2 increased in SA- or 3AT-treated tobacco leaves by 50-60% over the control levels observed in water-treated leaves. […] Thus, elevated levels of H2 O2, and in turn, enhanced oxidative stress in vivo, were consistent with inhibition of catalase activity by SA observed in vitro.

| Compound | Induction of PR-1 protein synthesis / PR-1 gene induction (in words) (PR1 genes) | Inhibition of catalase activity in vivo (in words) (catalase) | % Inhibition of ascorbate peroxidase (ascorbate peroxidase) [%] | Inhibition of binding of 14C-labeled SA to SABP/catalase in vitro (in words) (SABP/catalase) | Enhanced resistance to TMV infection (reduction in lesion size) (TMV) | Effect on salicylic acid binding activity of SABP [1] | further results |
| --- | --- | --- | --- | --- | --- | --- | --- |
| O=C(O)c1cc(Cl)ccc1O [5-Chlorosalicylic acid] | potent inducers of PR-1 protein synthesis | very effectively inhibited catalase activity | 73 ± 5 | very effectively inhibited | enhanced resistance to TMV infection | – | – |
| O=C(O)c1cc(Cl)nc(Cl)c1 [INA, 2,6-dichloroisonicotinic acid] | – | – | – | – | – | – | IC50 (ascorbate peroxidase; 750 μM ascorbate, 25 to 500 μM compound, FIG. 17, read-out: Concentration necessary for 50% inhibition (I50) of ascorbate peroxidase): 95 µM; Activity (ascorbate peroxidase; APX, 100 μM compound): 2.25 ± 0.4 μmols of oxidized substrate mi; Inhibition (ascorbate peroxidase; APX, 100 μM compound): 54%; Activity (ascorbate peroxidase; APX, 1,000 μM compound): 0.24 ± 0.2 μmols of oxidized substrate mi; Inhibition (ascorbate peroxidase; APX, 1,000 μM compound): 95%; Activity (guaiacol peroxidases; POX, 100 μM compound): 2.8 ± 0.4 μmols of oxidized substrate mi; Inhibition (guaiacol peroxidases; POX, 100 μM compound): 0%; Activity (guaiacol peroxidases; POX, 1,000 μM compound): 2.7 ± 0.4 μmols of oxidized substrate mi; Inhibition (guaiacol peroxidases; POX, 1,000 μM compound): 3%; Activity (horseradish peroxidase; HRP, 100 μM compound): 236 ± 8 μmols of oxidized substrate mi; inhibition at 100 µM (horseradish peroxidase; HRP, 100 μM compound): 1%; Activity (horseradish peroxidase; HRP, 1,000 μM compound): 242 ± 16 μmols of oxidized substrate mi; inhibition at 1000 µM (horseradish peroxidase; HRP, 1,000 μM compound): 0%; Reduction in lesion size (%) (TMV; TMV infection six days after injection, lesions measured seven days post infection, treated vs untreated leaf half): 72% |
| O=C(O)c1ccc(Cl)cc1O [4-Chlorosalicylic acid] | potent inducers of PR-1 protein synthesis | very effectively inhibited catalase activity | 58 ± 4 | very effectively inhibited | enhanced resistance to TMV infection | – | – |
| O[C@H](CS)[C@H](O)CS (racemic) [dithiothreitol] | – | – | – | – | – | affected | – |
| Nc1nc[nH]n1 [3AT, 3-amino-1,2,4-triazole] | – | – | – | – | – | – | Induction of PR1 gene expression (PR1 genes; tobacco leaves): induced the expression of PR-1 genes; Increase in abundance of H2O2 over water-treated leaves (H2 O2): 50-60% |
| OCCS [beta-mercaptoethanol] | – | – | – | – | – | affected | – |
| O=C1O[C@H]([C@@H](O)CO)C(O)=C1O [ascorbic acid] | – | – | – | – | – | little inhibitory effect | – |
| O=C(O)c1cc(Cl)cc(Cl)c1O [3,5-Dichlorosalicylic acid] | potent inducers of PR-1 protein synthesis | very effectively inhibited catalase activity | 59 ± 5 | very effectively inhibited | enhanced resistance to TMV infection | – | – |
